“Also recorded” adds a separate entry of the source.
Assays:
[1] = Oxygen Radical Absorbance Capacity (ORAC) assay; details: synthetic peptides; for ORAC value (scavenging activity): per g of peptide
Procedure: This assay measures the scavenging capacity of antioxidant nutrients against the peroxyl radical [Diehl-Jones W L and Askin D F. American Association of Critical Care Nurses (AACN) Clin Issues 15: 83 (2004)], which is one of the most common reactive oxygen species (ROS) in the human body. […] To identify the peptides in fraction #23, the sample was injected into an LC-MS/MS system.

[2] = system: TNF-α expression in RAW 264.7 cells; assay: Cytokine expression in LPS-activated mouse macrophage cell line, TNF-α ELISA; format: cell-based; details: 1 μg/ml LPS, 24 hours
[3] = system: MCP-1 secretion from human PBMCs; assay: MCP-1 secretion from peripheral blood mononuclear cells after peptide exposure (sandwich ELISA); format: cell-based; details: 24 h exposure, 20 and 100 μg/ml
Procedure: FIG. 13 illustrates stimulation of MCP-1 and Gro-a sectretion from human peripheral blood mononuclear cells (PBMCs) after 24 h exposure to peptides 1-8 (SEQ ID NOs. 1, 29, 2, 8, 9, 19, and 22, respectively) from fraction #23. The experiment was carried out in 4 biological replicates (4 different donors), with 2 technical repeats in each biological experiment. The peptide fragments were tested at 2 concentrations, 20 and 100 μg/ml and MCP-1 and Gro-a were detected by sandwich ELISA kits (BioSource International and eBiosciences, respectively). A positive control peptide (1002) was used in the experiment.
Venous blood from healthy volunteers is collected in Vacutainer® collection tubes containing sodium heparin as an anticoagulant (BD Biosciences). […] The buffy coat is collected and washed twice in RPMI 1640 complete medium, and the number of PBMCs can be determined by trypan blue exclusion. […]
Following 24 hrs of peptide exposure, the tissue culture supernatants are centrifuged at 16,000G (13,000 rpm) at 4° C. for 5 minutes in an IEC MicroMax centrifuge to obtain cell-free samples. […] Cytokines/chemokines are detected by sandwich ELISA kits (BioSource International or eBiosciences) and multiplex kit (Luminex). […] The concentration of the cytokines/chemokines in the culture medium can be quantified by establishing a standard curve with serial dilutions of the recombinant human cytokines/chemokines. […]

[4] = system: IL-8 secretion in Caco-2 cells; assay: LPS induced IL-8 secretion in Caco-2 cell culture model; format: cell-based; details: 50, 100, 200 μg/ml, 4, 8, 20, 24 h
Source text: Culture medium for non-peptide treated cells was used as control. *P<0.05 indicates a significant difference between the 23-8 treated group and the control group (one-way ANOVA, n=4).

[5] = system: IL-6 expression in RAW 264.7 cells; assay: Cytokine expression in LPS-activated mouse macrophage cell line, IL-6 ELISA; format: cell-based; details: 100 μg/ml peptide, 1 μg/ml LPS, 24 hours
Procedure: FIG. 11 illustrates the effects of peptides of fraction #23 and tryptophan on TNF-α and IL-6 expression in RAW 246.7 cells. All values expressed in pg/ml +/− SD. Cells grown in 24-well culture tissue-culture grade plates (Corning) and incubated with 100 μg/ml of one of eight milk peptides 1-8 (SEQ ID NOs. 28, 1, 29, 2, 8, 9, 19, and 22, respectively) and 1 μg/ml LPS.
A mouse macrophage cell line (RAW 264.7) was activated with 1 μg/m1 lipopolysaccharide (LPS), a gram negative bacterial cell wall product which induces the expression of inflammatory cytokines (Interleukin-6 [IL-6] and Tumor Necrosis Factor alpha [TNF-α]) via activation of toll-like receptors [Wu, T. T. et al. Toxicol Let. 195-202 (2009). After incubation with LPS for 24 hours in the presence of the peptides from example 7, cell supernatant was collected and mouse IL-6 and TNF-α titres were determined by a standard micro-plate enzyme-linked immunosorbent assay (ELISA) technique (e-Biosciences).

Compound: SEQ ID NO. 9: human kappa-casein f(53-58), identified in fraction #23 (NPYVPR; listed as Homo sapiens)
- ORAC value (scavenging activity) [1]: 3380±592 uM Trolox/g

Compound: SEQ ID NO. 8: human kappa-casein f(31-36), identified in fraction #23 (VPNSYP; listed as Homo sapiens)
- ORAC value (scavenging activity) [1]: 3462±560 uM Trolox/g

Compound: N[C@@H](Cc1c[nH]c2ccccc12)C(=O)O [tryptophan, L-tryptophan, reference compound]
- TNF-α expression compared to the control (cell culture medium plus LPS) ([2]; 100 μM tryptophan): greatest inhibition

Compound: VPVQA (listed as Homo sapiens) [SEQ ID NO. 1, fragment from human beta casein in fraction #23]
- TNF-α expression compared to the control (cell culture medium plus LPS) ([2]; 100 μg/ml peptide): significantly inhibited
- radical scavenging activity in ORAC assay (in words) [1]: No scavenging activities

Compound: SEQ ID NO. 19: tyrosine-containing peptide of fraction #23, not matched to a human milk protein (YGYTGA; listed as Homo sapiens)
- TNF-α expression compared to the control (cell culture medium plus LPS) ([2]; 100 μg/ml peptide): significantly inhibited
- radical scavenging activity in ORAC assay (in words) [1]: most radical scavenging properties
- ORAC value (scavenging activity) [1]: 8205±552 uM Trolox/g

Compound: HNPI (listed as Homo sapiens) [SEQ ID NO. 28, fragment from human beta casein in fraction #23]
- levels of MCP-1 from PBMCs [3]: robust response; also recorded: significant activity
- ORAC value (scavenging activity) [1]: 114 ±14 uM Trolox/g

Compound: SEQ ID NO. 2: human beta-casein f(169-173), identified in fraction #23 (VPYPQ; listed as Homo sapiens)
- TNF-α expression compared to the control (cell culture medium plus LPS) ([2]; 100 μg/ml peptide): significantly inhibited
- ORAC value (scavenging activity) [1]: 3940±623 uM Trolox/g

Compound: ISELGW (listed as Homo sapiens) [SEQ ID NO. 22, tryptophan-containing peptide of fraction #23, not matched to a human milk protein]
- LPS induced interleukin-8 (IL-8) secretion [4]: decrease
- TNF-α expression compared to the control (cell culture medium plus LPS) ([2]; 100 μg/ml peptide): significantly inhibited
- levels of MCP-1 from PBMCs [3]: robust response; also recorded: significantly increased
- radical scavenging activity in ORAC assay (in words) [1]: most radical scavenging properties
- IL-6 expression [5]: significantly reduced

Compound: PLAQPA (listed as Homo sapiens) [SEQ ID NO. 29, fragment from human beta casein in fraction #23]
- TNF-α expression compared to the control (cell culture medium plus LPS) ([2]; 100 μg/ml peptide): significantly inhibited
- radical scavenging activity in ORAC assay (in words) [1]: No scavenging activities

Reference: patent US8518894B2, “Human milk peptides” (priority 2009, dated 2013)
